Laboratory results taken from patent US12269793B2, “Affinity illudofulvene conjugates” (AF Chemicals, LLC, priority 2019, dated 2025).
Read-outs that look alike come from different tables or passages of the source. Where a SMILES comes first, the peptide text is derived from it. [ ]: non-standard residue; d: D form. The star is where a group is joined. X4 = CC1=C(C*)C2=C(C)C3(CC3)[C@@](C)(O)C(=O)C2=C1

What was measured:
Assay in all cases: cells
[1] = system: 8392B Nontarget Cell Line (hematopoietic); conditions: 2 h
[2] = system: MV522 Target Cell Line (lung-derived adenocarcinoma); conditions: MV522, 48 h, read-out: Mean IC50 value
[3] = system: MV522 Target Cell Line (lung-derived adenocarcinoma); conditions: MV522, 2 h, read-out: Mean IC50 value
[4] = system: 8392B Nontarget Cell Line (hematopoietic); conditions: 48 h, read-out: Mean IC50 value
[5] = read-out: Mean IC50 value, 8392B Nontarget Cell Line, 2 hr exposure, ± SD, N = 3 unless otherwise indicated

For `CC1=C(COCC2=C(C)C=C3C(=O)[C@](C)(O)C4(CC4)C(C)=C32)C2=C(C)C3(CC3)[C@@](C)(O)C(=O)C2=C1` [Analog 017], the IC50 [1, 5] was 14.7 ± 0.9 µM and the IC50 [2] was 0.32 ± 0.06 µM.

`CC1=C(CO[C@@H]2O[C@@H](CO)[C@H](O)[C@@H](O)[C@@H]2O)C2=C(C)C3(CC3)[C@@](C)(O)C(=O)C2=C1` [Analog 018] gave an IC50 [3] of 8.8 ± 2.9 µM.

With `C/C(C=O)=C1\[C@@H](O)C[C@]1(C)[C@H]1CC(C)(C)C[C@@H]1O` [Analog 105] the IC50 [3] was 7.3 ± 1.2 µM, the IC50 ([1]; read-out: Mean IC50 value) was > 100 µM and the IC50 [2] was 2.1 ± 0.4 µM.

With `CC1=C(CCC(O)CO)C2=C(C)C3(CC3)[C@@](C)(O)C(=O)C2=C1` (some centres unmarked) [Analog 119] the IC50 [1, 5] was > 33 µM and the IC50 [4] was > 10 µM.

`COCC1=C(C)C=C2C(=O)[C@](C)(O)C3(CC3)C(C)=C21` [Analog 080] was tested, and the IC50 [3] was 8.8 ± 2.4 µM and the IC50 [1, 5] was > 100 µM.

`COC(=O)CSCC1=C(C)C=C2C(=O)[C@](C)(O)C3(CC3)C(C)=C21` [Analog 025] was tested, and the IC50 [1, 5] was > 25 µM.

`CC1=C2C(=CC3=C2COCOC3)C(=O)[C@](C)(O)C12CC2` [Analog 104] showed an IC50 [1, 5] of 36.4 ± 6.5 µM.

For `CC1=C2C(=CC(C)(C)[C@@H]2OC(=O)CCCC(=O)Oc2ccc3c(c2)CCC2C3CC[C@]3(C)C(O)CCC23)C(=O)[C@](C)(O)C12CC2` (some centres unmarked) [Analog 109], the IC50 [3] was > 50 µM and the IC50 ([1]; read-out: Mean IC50 value) was > 50 µM.

In the case of `COCC1=CC2=C(C)C3(CC3)[C@@](C)(O)C(=O)C2=C1` [Analog 079], the IC50 [1, 5] is reported as > 100 µM.

In the case of `COC(=O)CSCC1=C(C)C(SCC(=O)OC)C2(O)C(=O)[C@](C)(O)C3(CC3)C(C)=C12` (some centres unmarked) [Analog 031], the IC50 [2] is reported as > 3 µM.

`CC(=O)OCC1=C(CO)C2=C(C)C3(CC3)[C@@](C)(O)C(=O)C2=C1` [Analog 077] showed an IC50 [3] of 9.2 ± 1.2 µM.

In the case of `CC1=C(CSCC(O)CO)C2=C(C)C3(CC3)[C@@](C)(O)C(=O)C2=C1` (some centres unmarked) [Analog 032], the IC50 [3] is reported as 0.6 ± 0.19 µM and the IC50 [1, 5] is reported as > 30 µM.

For `CC1=C(CCC=NNc2ccccc2)C2=C(C)C3(CC3)[C@@](C)(O)C(=O)C2=C1` [Analog 122], the IC50 [1, 5] was 14.5 ± 1.2 µM.

For `CC(=O)N[C@@H](CSCC1=C(C)C=C2C(=O)[C@](C)(O)C3(CC3)C(C)=C21)C(=O)N[C@@H](CC(C)C)C(=O)N[C@@H](CC(C)C)C(=O)N[C@@H](C=O)Cc1ccccc1` [Analog 085] (Ac-C(X4)LL[dF]-aldehyde), the IC50 [3] was > 40 µM and the IC50 [2] was > 40 µM.

`CC1=C(COCC(O)CO)C2=C(C)C3(CC3)[C@@](C)(O)C(=O)C2=C1` (some centres unmarked) [Analog 019] was tested, and the IC50 [3] was 0.47 ± 0.06 µM, the IC50 [1, 5] was > 75 µM and the IC50 [2] was 0.66 ± 0.08 µM.

Compound `CC(=O)OCC1=C(CO)C=C2C(=O)[C@](C)(OC(C)=O)C3(CC3)C(C)=C21` [Analog 103] has an IC50 [3] of 31.8 ± 4.9 µM, an IC50 [1, 5] of 12.1 ± 2 µM and an IC50 [2] of 5.9 ± 0.4 µM.

In the case of `CCOC(CCC1=C(C)C=C2C(=O)[C@](C)(O)C3(CC3)C(C)=C21)OCC` [Analog 040], the IC50 [4] is reported as 5.2 ± 0.47 µM.

Compound `CC1=C2C(=C[C@@](C)(COC(=O)CCCC(=O)O)C2OC(=O)CCCC(=O)O)C(=O)[C@](C)(O)C12CC2` (some centres unmarked) [Analog 117] has an IC50 [4] of 0.01 ± 0.002 µM.

With `CC(=O)OCC1=C(C)C=C2C(=O)[C@](C)(O)C3(CC3)C(C)=C21` [Analog 034] the IC50 [1, 5] was > 100 µM and the IC50 [2] was 0.49 ± 0.04 µM.

`CC(=O)N[C@@H](CSCC1=CC=C2C(=O)[C@](C)(O)C3(CC3)C(C)=C12)C(=O)N[C@@H](C)c1ccccc1` [Analog 065] showed an IC50 [3] of 6.2 ± 1.1 µM.

`CC1=C(CCC=NNc2ccc([N+](=O)[O-])cc2[N+](=O)[O-])C2=C(C)C3(CC3)[C@@](C)(O)C(=O)C2=C1` [Analog 125] was tested, and the IC50 [3] was 3.7 ± 0.6 µM, the IC50 [1, 5] was 15.5 ± 1.4 µM and the IC50 [4] was 0.6 ± 0.1 µM.

Work on `COC(CCC1=C(C)C=C2C(=O)[C@](C)(O)C3(CC3)C(C)=C21)OC` [Analog 039] yielded an IC50 [1, 5] of 24.6 ± 2.4 µM and an IC50 [2] of 0.6 ± 0.04 µM.

For `CC1=C(COC(C)(C)C)C2=C(C)C3(CC3)[C@@](C)(O)C(=O)C2=C1` [Analog 116], the IC50 [3] was 0.4 ± 0.1 µM and the IC50 [1, 5] was 7 ± 0.4 µM.

`CCOCC1=C(C)C=C2C(=O)[C@](C)(O)C3(CC3)C(C)=C21` [Analog 016] was tested, and the IC50 [3] was 0.49 ± 0.13 µM, the IC50 [1, 5] was > 100 µM and the IC50 [4] was 0.87 ± 0.06 µM.

In the case of `CC1=C2C=CC=C2C(=O)C(O)C12CC2` (centres unmarked) [Analog 035], the IC50 [3] is reported as 5.6 ± 0.6 µM and the IC50 [1, 5] is reported as > 150 µM.

For `COCC1=C(CO)C=C2C(=O)[C@](C)(O)C3(CC3)C(C)=C21` [Analog 081], the IC50 [3] was > 80 µM and the IC50 [1, 5] was > 80 µM.

Work on `COC(C)(C)OCC1=C(C)C=C2C(=O)[C@](C)(O)C3(CC3)C(C)=C21` [Analog 021] yielded an IC50 [1, 5] of 34.4 ± 9.4 µM and an IC50 [2] of 0.93 ± 0.25 µM.

`CC1=C(CCC=O)C2=C(C)C3(CC3)[C@@](C)(O)C(=O)C2=C1` [Analog 010] showed an IC50 [1, 5] of 29.4 ± 1.6 µM and an IC50 [4] of 14.5 ± 1.7 µM.

In the case of `CC1=C(CSCc2ccccc2)C2=C(C)C3(CC3)[C@@](C)(O)C(=O)C2=C1` [Analog 024], the IC50 [1, 5] is reported as 12.8 ± 2.1 µM.

With `CC(=O)N[C@@H](CSCC1=C(C)C=C2C(=O)[C@](C)(O)C3(CC3)C(C)=C21)C(=O)N[C@@H](CC(C)C)C(=O)N[C@H](CC(C)C)C(=O)N[C@H](C=O)CC(C)C` [Analog 087] (Ac-C(X4)L[dL]L-aldehyde) the IC50 [3] was > 40 µM, the IC50 [1, 5] was > 40 µM and the IC50 [2] was 24.7 ± 3.9 µM.

For `CC1=C2C(=C[C@@]3(C)COCO[C@@H]23)C(=O)[C@](C)(O)C12CC2` [Analog 014], the IC50 [3] was 0.115 ± 0.03 µM and the IC50 [1, 5] was 9.65 ± 0.2 µM.

`CC1=C2C(=CC(C)(C)[C@@H]2OC(=O)CCCC(=O)O)C(=O)[C@](C)(O)C12CC2` [Analog 106] was tested, and the IC50 [3] was 5.2 ± 1 µM and the IC50 [1, 5] was > 83 µM.
